From patent US20150329387A1, “SYSTEMS AND METHODS FOR GENERATING HALOAMINES AND APPLICATION THEREOF IN OIL AND GAS OPERATIONS” (BUCKMAN LABORATORIES INTERNATIONAL, INC., priority 2014, published 2015) come the findings set out here.

What all share (assay type): cell-based
In test [1] the test system is total biological organism concentration. In words: ATP test of biocides in produced water from oil field water/oil/gas separator (LuminUltra QBG kit). An excerpt:
A one-liter sample of water was obtained from the mechanical water/oil/gas separator from a producing oil field in the western USA. The one liter sample was separated into four aliquots, one control and three test samples.
Adenosine triphosphate (ATP) is the energy source for all living organisms. Measurement of the ATP concentration in a water sample gives a good indication of the concentration of total biological organism concentration. A number of different companies including 3M and LuminUltra manufacture test kits. For this testing, the LuminUltra QBG test kit was employed.
Each of the non-control samples were dosed with one of three different biocides: MTC-10 (a 10% solution of methylenebis(thiocyanate) at 22 ppm active concentration; Diald 25 (a 25% solution of Glutaraldehyde) at 50 ppm active; and monochloramine (MCA) at a concentration of 7.5 ppm. After 30 and 60 minutes of exposure, ATP levels were measured and recorded.

For a further test, the system named is anaerobes. The test is described as follows: Kill study: ATP test of anaerobically captured oil field influent water (LuminUltra QUO-M kit). Also on record: ATP readings: unit not given here. The protocol: In an oil and gas field in the western USA, MCA was tested in comparison with methylene bis(thiocyanate), (MTC) in a weekly batch treatment and is fed for 2-3 hours at 200 ppm (as product).
A solution of MCA Working Solution was prepared using Busan 1474 and Bulab 6004 (high alkalinity bleach). The reaction of these two components diluted in water at the proper equimolar ratios and proper pH produces a stable high concentration of biocide. A known concentration of MCA was added to a specific volume of influent water which had to be captured under anaerobic conditions and kept in an incubation chamber when not being used because the primary organisms of interest (anaerobes) are very susceptible to both oxygen and temperature changes. Therefore, as soon as the samples were collected, the head space of the bottles were purged with Nitrogen and then sealed with a rubber stopper (which will permit the insertion of a hypodermic needle) and then crimped into place with an aluminium seal.
Owing to the fact that there is significant oil in the water, the organisms are coated with a fine layer of organic material, thus necessitating the usage of an ATP test kit which washes away the layer of oil prior to ATP testing. The kit employed for this testing is manufactured by LuminUltra and is identified as the Quench Gone Organic-Modified (QUO-M) test kit.
Furthermore, in order to ensure that adequate MCA was present to penetrate this oil layer (and have an apples to apples comparison in performance), the MCA was dosed at the same level as the MTC at a concentration of 200 ppm.
The MCA was tested at intervals between this period (30, 60, 180, and 240 minutes).
Bottles were collected and the initial concentration of ATP for each bottle was measured and then dosed with 200 ppm of MCA and MTC respectively and one bottle was not dosed to serve as a growth control.

Test [2] is described as follows: Previous testing of kill time and cell penetration. The protocol: Previous testing had shown that the MCA was killing in 20 minutes what it took other biocides (i.e. MTC and Glutaraldehyde) to accomplish in four hours.
[3] abbreviates: 0 min, initial reading of the bottle before dosing at 200 ppm.
The mark [4] stands for this setting: 180 min after dosing at 200 ppm.
[5] abbreviates: 240 min after dosing at 200 ppm.

Turning to `NCl` [MCA, monochloramine], the “Effectiveness relative to MTC-10 on an activity percentage basis” value in test [1] (30 minutes and 60 minutes of exposure, Figure-3) was “greater than 3 ×”. Moreover, in test [1] (60 minutes of exposure, Figure-3), the “Performance better than Diald-25 on an activity percentage basis” value is “more than 20%”. Further, the “Performance on a product percentage basis compared with Diald-25” value in test [1] (MCA 7.5 ppm vs Diald 25 50 ppm active, ATP after 30 and 60 minutes, Figure-2) is “better than Diald-25”. In test [1] (MCA 7.5 ppm vs MTC-10 22 ppm active, ATP after 30 and 60 minutes, Figure-2), the “Performance on a product percentage basis compared with MTC-10” value is “as well as MTC-10”. Further, in test [1] (first 30 minutes, Figure-3), the “Performance relative to Diald-25 on an activity percentage basis” value is approximately 2 ×. In addition, the ATP readings with anaerobes (setting [3]) was 321.4; in the test on anaerobes (30 min after dosing at 200 ppm), 26.05; with anaerobes (60 min after dosing at 200 ppm), 19.2; with anaerobes (setting [4]), 17.4; in the test with anaerobes (setting [5]) it was 11.9. Moreover, the “Percent reduction in ATP level (percent kill)” value with anaerobes (30 min, 200 ppm) is recorded as 92%; with anaerobes (60 min, 200 ppm) it was 94%; in the test with anaerobes (180 min, 200 ppm) it was 95%; in the test with anaerobes (240 min, 200 ppm) it was 96%. Also, the Cell penetration entry in test [2] (compared with MTC) is reported as “better than for MTC”. For the same molecule, in test [2] (previous testing), the “Time to accomplish kill” value stood at 20 min.

With `N#CSCSC#N` [MTC, methylene bis(thiocyanate), reference compound], the results for the ATP readings with anaerobes (setting [3]), in the test with anaerobes (setting [4]) and with anaerobes (setting [5]) were 217.3, 16.9 and 6.12, respectively. Moreover, in the test with anaerobes (200 ppm, FIG. 4 / Table 1), the “Overall performance in kill study compared with MCA” value was “performed slightly better”. The “Percent reduction in ATP level (percent kill)” value in the test on anaerobes (240 min, 200 ppm) is reported as 0.97%.
